Assay [1] concerns the target T1, testosterone (T) production in NCI-H295R cells (Homo sapiens, UniProt P05108).
T1 construct: testosterone measured by LC-MS/MS as downstream steroid
T1 sequence (P05108 40-521): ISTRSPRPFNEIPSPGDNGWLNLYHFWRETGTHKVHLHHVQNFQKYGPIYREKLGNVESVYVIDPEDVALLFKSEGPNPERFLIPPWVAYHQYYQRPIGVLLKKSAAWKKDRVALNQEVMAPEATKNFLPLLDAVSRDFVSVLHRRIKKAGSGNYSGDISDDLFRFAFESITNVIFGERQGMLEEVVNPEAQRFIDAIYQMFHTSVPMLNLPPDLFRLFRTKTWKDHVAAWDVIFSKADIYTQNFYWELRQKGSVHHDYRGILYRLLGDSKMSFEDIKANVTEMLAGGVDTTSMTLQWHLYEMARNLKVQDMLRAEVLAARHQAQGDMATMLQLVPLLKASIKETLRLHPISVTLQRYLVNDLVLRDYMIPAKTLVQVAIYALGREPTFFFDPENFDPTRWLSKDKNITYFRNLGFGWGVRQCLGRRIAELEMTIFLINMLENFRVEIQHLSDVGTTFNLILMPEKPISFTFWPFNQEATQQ
Description: H295R Steroid Biosynthesis Inhibition Assay - inhibition of testosterone (T) production in NCI-H295R cells. In kind it is cell-based. To be noted: 48 h, LC-MS/MS, read-out: Inh. of T IC50. The procedure, abridged:
(§1)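 NCI-H295R cells (60,000/well, charcoal-stripped FBS medium) were exposed to compounds at 1000–0.15 nM for 48 h. Pregnenolone and testosterone in medium were quantified by LC-MS/MS with deuterated internal standards. IC50 was fitted with a four-parameter inhibitory dose-response equation.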

A further assay addresses T2, CYP11A1 (Homo sapiens, UniProt P05108).
T2 construct: measuring the cellular production of pregnenolone (P) catalyzed by CYP11A1; host or cells: NCI-H295R
T2 sequence (P05108 40-521): T1 sequence (P05108 40-521)
Put plainly: H295R Steroid Biosynthesis Inhibition Assay - inhibition of pregnenolone (P) production catalyzed by CYP11A1 in NCI-H295R cells. To be noted: 48 h, LC-MS/MS, read-out: Inh. of P IC50. Type of assay: cell-based. The gist of the method: as §1

As to `CS(=O)(=O)N1CCC(c2ccc3cc(CN4Cc5ccccc5C4)ccc3c2)CC1` [Compound 66], the IC50 (in assay [1]; on CYP11A1) was at most 40 nM each time.

As for `CS(=O)(=O)N1CCC(c2cc(Cl)c3cc(CN4Cc5ccccc5C4)ccc3n2)CC1` [Compound 77], the IC50 (in assay [1]; on CYP11A1) was at most 40 nM each time.

In the case of `NC(=O)[C@H]1CC[C@H](c2cc3oc(CN4Cc5ccccc5C4)cc(=O)c3o2)CC1` [Compound 46], the IC50 (in assay [1]; on CYP11A1) was at most 40 nM in each case.

Turning to `CS(=O)(=O)N1CCC(COc2ccc(CN3CCc4ccccc4C3)c3cccnc23)CC1` [Compound 8], the IC50 (in assay [1]; at CYP11A1) was at most 40 nM in each case.

As to `CS(=O)(=O)N1CCC(COc2coc(CN3CCn4cccc4C3)cc2=O)CC1` [Compound 3], the IC50 (as a rule, the point on the concentration scale where inhibition reaches its midpoint) was 41 to 100 nM in assay [1] and at most 40 nM at CYP11A1.

As to `O=C(c1nccs1)N1CCC(c2cnc3cc(CN4Cc5ccccc5C4)ccc3n2)CC1` [Compound 109], the values for the IC50 (in assay [1]; at CYP11A1) were 41 to 100 nM and 40 to 100 nM, respectively.

As to `Cn1ccc(C(=O)N2CCC(c3cnc4cc(CN5Cc6ccccc6C5)ccc4n3)CC2)n1` [Compound 106], the half-inhibitory concentration (IC50) in assay [1] was at least 101 nM; on CYP11A1, at most 40 nM.

For `CS(=O)(=O)N1CCC(c2cc(=O)n3cc(CN4Cc5ccccc5C4)ccc3n2)CC1` [Compound 62], the IC50 in assay [1] is at least 101 nM; at CYP11A1, 40 to 100 nM.

For the molecule `Cc1nc(C2CCN(S(C)(=O)=O)CC2)nc2ccc(CN3CCn4cccc4C3)cc12` [Compound 84], the IC50 in assay [1] is at least 101 nM; at CYP11A1 it was at least 100 nM.
